According to ChEMBL document CHEMBL4602738, “Looking toward the Rim of the Active Site Cavity of Druggable Human Carbonic Anhydrase Isoforms” (ACS Med Chem Lett, 2020):

target: Carbonic anhydrase 2 (Homo sapiens, UniProt P00918); experiment: Inhibition of human CA2 preincubated for 15 mins by stopped-flow carbon dioxide hydration assay

**Q.** `NS(=O)(=O)c1ccc(C(=O)N2CCN(C(=O)c3cccc(Cl)c3)CC2)cc1` was tested. Which Ki did it give?
**A.** 22.5 nM

**Q.** For `COc1cccc(C(=O)N2CCN(C(=O)c3ccc(S(N)(=O)=O)cc3)CC2)c1`, which Ki is on record?
**A.** 36.3 nM

**Q.** `Nc1ccccc1C(=O)N1CCN(C(=O)c2ccc(S(N)(=O)=O)cc2)CC1` was tested. Which Ki did it give?
**A.** 4.1 nM

**Q.** For `NS(=O)(=O)c1ccc(C(=O)N2CCN(C(=O)c3ccc([N+](=O)[O-])cc3)CC2)cc1`, which Ki is on record?
**A.** 23.9 nM

**Q.** How did the Ki turn out when `COc1ccccc1C(=O)N1CCN(C(=O)c2ccc(S(N)(=O)=O)cc2)CC1` was run?
**A.** 19.8 nM

**Q.** For `NS(=O)(=O)c1ccc(C(=O)N2CCN(C(=O)c3ccc(F)cc3)CC2)cc1`, which Ki is on record?
**A.** 32.4 nM

**Q.** With `Nc1ccc(C(=O)N2CCN(C(=O)c3ccc(S(N)(=O)=O)cc3)CC2)cc1` as the molecule, how does the Ki read?
**A.** 78.8 nM

**Q.** `NS(=O)(=O)c1ccc(C(=O)N2CCN(C(=O)c3ccc(Cl)cc3)CC2)cc1` was tested. Which Ki did it give?
**A.** 7.2 nM

**Q.** `NS(=O)(=O)c1ccc(C(=O)N2CCN(C(=O)c3cccc([N+](=O)[O-])c3)CC2)cc1` was tested. Which Ki did it give?
**A.** 28.6 nM

**Q.** How did the Ki turn out when `NS(=O)(=O)c1ccc(C(=O)N2CCN(C(=O)c3cccc(Br)c3)CC2)cc1` was run?
**A.** 0.6 nM

**Q.** How did the Ki turn out when `NS(=O)(=O)c1ccc(C(=O)N2CCN(C(=O)c3ccccc3F)CC2)cc1` was run?
**A.** 28.4 nM

**Q.** Which Ki does the source give for `NS(=O)(=O)c1ccc(C(=O)N2CCN(C(=O)c3ccccc3Br)CC2)cc1` here?
**A.** 3 nM

**Q.** How did the Ki turn out when `NS(=O)(=O)c1ccc(C(=O)N2CCN(C(=O)c3ccc(Br)cc3)CC2)cc1` was run?
**A.** 4.4 nM

**Q.** `NS(=O)(=O)c1ccc(C(=O)N2CCN(C(=O)c3ccccc3[N+](=O)[O-])CC2)cc1` was tested. Which Ki did it give?
**A.** 42.4 nM

**Q.** Which Ki does the source give for `Nc1cccc(C(=O)N2CCN(C(=O)c3ccc(S(N)(=O)=O)cc3)CC2)c1` here?
**A.** 51.1 nM

**Q.** With `NS(=O)(=O)c1ccc(C(=O)N2CCN(C(=O)c3cccc(F)c3)CC2)cc1` as the molecule, how does the Ki read?
**A.** 0.41 nM

target: Carbonic anhydrase 9 (Homo sapiens, UniProt Q16790)
Description: Inhibition of human CA9 preincubated for 15 mins by stopped-flow carbon dioxide hydration assay

**Q.** With `NS(=O)(=O)c1ccc(C(=O)N2CCN(C(=O)c3ccccc3Cl)CC2)cc1` as the molecule, how does the Ki read?
**A.** 62.2 nM

**Q.** With `NS(=O)(=O)c1ccc(C(=O)N2CCN(C(=O)c3cccc(Cl)c3)CC2)cc1` as the molecule, how does the Ki read?
**A.** 54.4 nM

**Q.** Which Ki does the source give for `COc1cccc(C(=O)N2CCN(C(=O)c3ccc(S(N)(=O)=O)cc3)CC2)c1` here?
**A.** 360 nM

**Q.** How did the Ki turn out when `Nc1ccccc1C(=O)N1CCN(C(=O)c2ccc(S(N)(=O)=O)cc2)CC1` was run?
**A.** 19.1 nM

**Q.** With `NS(=O)(=O)c1ccc(C(=O)N2CCN(C(=O)c3ccc([N+](=O)[O-])cc3)CC2)cc1` as the molecule, how does the Ki read?
**A.** 11.2 nM

**Q.** `COc1ccccc1C(=O)N1CCN(C(=O)c2ccc(S(N)(=O)=O)cc2)CC1` was tested. Which Ki did it give?
**A.** 250 nM

**Q.** `NS(=O)(=O)c1ccc(C(=O)N2CCN(C(=O)c3ccc(F)cc3)CC2)cc1` was tested. Which Ki did it give?
**A.** 332 nM

**Q.** For `Nc1ccc(C(=O)N2CCN(C(=O)c3ccc(S(N)(=O)=O)cc3)CC2)cc1`, which Ki is on record?
**A.** 14.3 nM

**Q.** For `NS(=O)(=O)c1ccc(C(=O)N2CCN(C(=O)c3ccccc3)CC2)cc1`, which Ki is on record?
**A.** 37.1 nM

**Q.** For `NS(=O)(=O)c1ccc(C(=O)N2CCN(C(=O)c3ccc(Cl)cc3)CC2)cc1`, which Ki is on record?
**A.** 29.2 nM

**Q.** Which Ki does the source give for `NS(=O)(=O)c1ccc(C(=O)N2CCN(C(=O)c3cccc([N+](=O)[O-])c3)CC2)cc1` here?
**A.** 2.2 nM

**Q.** `NS(=O)(=O)c1ccc(C(=O)N2CCN(C(=O)c3cccc(Br)c3)CC2)cc1` was tested. Which Ki did it give?
**A.** 16.2 nM

**Q.** Which Ki does the source give for `NS(=O)(=O)c1ccc(C(=O)N2CCN(C(=O)c3ccccc3F)CC2)cc1` here?
**A.** 68.7 nM

**Q.** `NS(=O)(=O)c1ccc(C(=O)N2CCN(C(=O)c3ccccc3Br)CC2)cc1` was tested. Which Ki did it give?
**A.** 60.4 nM

**Q.** How did the Ki turn out when `NS(=O)(=O)c1ccc(C(=O)N2CCN(C(=O)c3ccc(Br)cc3)CC2)cc1` was run?
**A.** 8 nM

**Q.** How did the Ki turn out when `NS(=O)(=O)c1ccc(C(=O)N2CCN(C(=O)c3ccccc3[N+](=O)[O-])CC2)cc1` was run?
**A.** 9.8 nM

**Q.** For `Nc1cccc(C(=O)N2CCN(C(=O)c3ccc(S(N)(=O)=O)cc3)CC2)c1`, which Ki is on record?
**A.** 15.2 nM

**Q.** How did the Ki turn out when `NS(=O)(=O)c1ccc(C(=O)N2CCN(C(=O)c3cccc(F)c3)CC2)cc1` was run?
**A.** 3.8 nM
